Data on 21 compounds can be found in patent US8541585B2, “N-acyl cyclic amine derivative or pharmaceutically acceptable salt thereof” (Dainippon Sumitomo Pharma Co., Ltd., priority 2010, dated 2013).

The term inhibition denotes the relative decrease from the control value, in per cent.

In one assay the target is human D2L receptor (Homo sapiens, UniProt P14416). Description: Dopamine D2L receptor binding assay ([3H]-spiperone). Conditions: 10 nM test drug, [3H]-spiperone 0.5 nM, human D2L receptor-expressing CHO cell membrane; for inhibition at 0.01 µM: read-out: BINDING INHIBITION RATE (%) D2L 10 nM. In short, it runs like this:
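CHO membranes expressing human D2L incubated 60 min at RT with 0.5 nM [³H]-spiperone in 50 mM Tris-HCl pH 7.6; filtration and scintillation counting. Nonspecific binding with 10 μM spiperone; % binding inhibition at 10 nM test drug.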

The next assay concerns the target T1, human 5-HT2A receptor (Homo sapiens, UniProt P28223).
T1 construct: expressed in transfected cells; host or cells: CHO cells (membrane preparation)
The assay can be described thus: Serotonin 5-HT2A receptor binding assay ([3H]-ketanserin). Conditions: [3H]-ketanserin 1 nM, human 5-HT2A receptor-expressing CHO cell membrane; for inhibition at 0.01 µM: 10 nM test drug, read-out: BINDING INHIBITION RATE (%) 5HT2A 10 nM; for inhibition at 0.001 µM: read-out: BINDING INHIBITION RATE (%) 5HT2A 1 nM. In short, it runs like this:
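Membranes from CHO cells expressing human 5-HT2A incubated 15 min at 37 °C with 1 nM [3H]-ketanserin in 50 mM Tris-HCl pH 7.6, then filtered and counted by scintillation. Nonspecific binding defined with 10 μM MDL-100907; inhibition rate determined at 1 nM or 10 nM test drug.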

The target in another assay is T2, human 5-HT6 receptor (Homo sapiens, UniProt P50406).
T2 construct: expressed in transfected cells; host or cells: CHO cells (membrane preparation)
Description: Serotonin 5-HT6 receptor binding assay ([3H]-clozapine). Particulars: 100 nM test drug, [3H]-clozapine 2 nM, human 5-HT6 receptor-expressing CHO cell membrane; for inhibition at 0.1 µM: read-out: BINDING INHIBITION RATE (%) 5HT6 100 nM. The method, boiled down: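 Membranes from CHO cells expressing human 5-HT6 were incubated with [3H]-clozapine (2 nM final) for 40 min at room temperature in 50 mM Tris-HCl pH 7.6, 4 mM CaCl2, 0.5 mM EDTA. Bound radioactivity was filtered and counted. Values are % binding inhibition at 100 nM test drug, with nonspecific binding defined by 10 μM SB-258585.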

For the next assay, the target named is T3, human α1D receptor (Homo sapiens, UniProt P25100).
T3 construct: expressed in transfected cells; host or cells: CHO cells (membrane preparation)
T3 sequence (P25100 1-572): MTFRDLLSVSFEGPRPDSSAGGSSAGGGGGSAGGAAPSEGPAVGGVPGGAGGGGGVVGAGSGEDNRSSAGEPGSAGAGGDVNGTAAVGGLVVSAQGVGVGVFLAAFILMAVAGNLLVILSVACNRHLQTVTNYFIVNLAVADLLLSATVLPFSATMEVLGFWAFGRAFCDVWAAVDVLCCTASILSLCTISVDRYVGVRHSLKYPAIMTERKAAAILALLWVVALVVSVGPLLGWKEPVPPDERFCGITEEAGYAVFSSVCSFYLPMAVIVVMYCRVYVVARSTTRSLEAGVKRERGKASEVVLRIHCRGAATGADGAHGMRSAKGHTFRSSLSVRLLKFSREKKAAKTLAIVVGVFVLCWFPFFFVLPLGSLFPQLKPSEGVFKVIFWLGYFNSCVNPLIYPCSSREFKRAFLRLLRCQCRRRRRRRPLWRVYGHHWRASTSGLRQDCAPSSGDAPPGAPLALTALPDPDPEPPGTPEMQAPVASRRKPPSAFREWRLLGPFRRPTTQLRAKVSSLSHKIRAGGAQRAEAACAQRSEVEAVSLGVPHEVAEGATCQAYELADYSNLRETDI
The assay can be described thus: Adrenaline α1D receptor binding assay ([3H]-prazosin). Conditions: 100 nM test drug, [3H]-prazosin 0.6 nM, human α1D receptor-expressing CHO cell membrane; for inhibition at 0.1 µM: read-out: BINDING INHIBITION RATE (%) α1D 100 nM. The method, boiled down:
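Membranes from CHO cells expressing human α1D, incubated 30 min at room temperature with 0.6 nM [3H]-prazosin in 50 mM Tris-HCl pH 7.6, filtered and counted. Nonspecific binding defined with 1 μM prazosin. Test drug at 100 nM, reported as percent inhibition of binding.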

T1 sequence (P28223 whole entry): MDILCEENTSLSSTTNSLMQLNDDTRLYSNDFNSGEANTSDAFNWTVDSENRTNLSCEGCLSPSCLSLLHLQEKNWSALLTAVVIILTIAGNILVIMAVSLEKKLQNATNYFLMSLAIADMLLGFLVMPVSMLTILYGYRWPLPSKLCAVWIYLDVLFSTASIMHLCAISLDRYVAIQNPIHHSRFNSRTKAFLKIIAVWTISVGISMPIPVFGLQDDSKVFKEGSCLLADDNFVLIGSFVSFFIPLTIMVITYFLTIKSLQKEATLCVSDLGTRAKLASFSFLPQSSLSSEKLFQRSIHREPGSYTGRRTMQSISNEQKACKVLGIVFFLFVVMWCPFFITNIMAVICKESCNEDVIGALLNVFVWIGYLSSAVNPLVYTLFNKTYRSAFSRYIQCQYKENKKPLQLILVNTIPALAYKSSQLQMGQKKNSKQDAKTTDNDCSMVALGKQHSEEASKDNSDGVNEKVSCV
T2 sequence (P50406 whole entry): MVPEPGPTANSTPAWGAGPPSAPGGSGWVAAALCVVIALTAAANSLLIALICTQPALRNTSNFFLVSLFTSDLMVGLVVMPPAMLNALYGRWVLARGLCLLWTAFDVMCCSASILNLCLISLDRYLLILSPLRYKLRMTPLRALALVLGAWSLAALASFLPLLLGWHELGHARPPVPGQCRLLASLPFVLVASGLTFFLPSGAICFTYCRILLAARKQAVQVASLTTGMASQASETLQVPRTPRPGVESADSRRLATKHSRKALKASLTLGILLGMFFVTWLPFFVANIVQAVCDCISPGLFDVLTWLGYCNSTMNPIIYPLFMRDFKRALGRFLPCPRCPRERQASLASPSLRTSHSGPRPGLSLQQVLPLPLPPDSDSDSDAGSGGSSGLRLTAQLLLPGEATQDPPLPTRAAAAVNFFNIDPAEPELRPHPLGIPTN
human D2L receptor, sequence (P14416 whole entry): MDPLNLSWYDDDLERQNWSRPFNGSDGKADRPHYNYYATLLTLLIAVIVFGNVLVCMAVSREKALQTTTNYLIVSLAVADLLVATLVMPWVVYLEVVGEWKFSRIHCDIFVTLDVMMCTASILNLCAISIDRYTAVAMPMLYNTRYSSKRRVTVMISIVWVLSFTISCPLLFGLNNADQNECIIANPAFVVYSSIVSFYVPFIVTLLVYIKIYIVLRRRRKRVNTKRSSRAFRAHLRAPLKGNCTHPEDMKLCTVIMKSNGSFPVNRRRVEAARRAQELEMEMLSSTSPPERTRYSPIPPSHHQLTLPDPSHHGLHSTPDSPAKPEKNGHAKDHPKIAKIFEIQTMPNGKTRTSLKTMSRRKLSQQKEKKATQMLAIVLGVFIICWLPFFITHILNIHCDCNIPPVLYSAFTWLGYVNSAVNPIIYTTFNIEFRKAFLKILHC

As to `O=C(/C=C/c1ccc2c(c1)OCO2)N1CCC[C@H](CN2CCC(c3noc4cc(F)ccc34)CC2)C1` [Example 17], the inhibition at 0.01 µM on human D2L receptor was found to be 84%; on human 5-HT2A receptor, 99%. Also, the inhibition at 0.1 µM came out at 93% at human 5-HT6 receptor and 92% on human α1D receptor.

Regarding `O=C(/C=C/c1ccc2c(c1)OCO2)N1CCC[C@H](CN2CCC(c3coc4ccccc34)CC2)C1` [Example 29], the inhibition at 0.01 µM at human D2L receptor worked out at 80%; on human 5-HT2A receptor, 100%. For the same compound, the inhibition at 0.1 µM was found to be 85% on human 5-HT6 receptor and 92% at human α1D receptor.

For the compound `CC(C)c1ccc2cc(C(=O)N3CCC[C@H]3CCN3CCC(C(=O)c4ccc(F)cc4)CC3)[nH]c2c1` [Example 161, (S)-(2-(2-(4-(4-Fluorobenzoyl)piperidin-1-yl)ethyl)pyrrolidin-1-yl)(6-isopropyl-1H-indol-2-yl)methanone], on human D2L receptor, the inhibition at 0.01 µM amounted to 49%. On human 5-HT2A receptor (1 nM test drug), the inhibition at 0.001 µM worked out at 69%. The results for the inhibition at 0.1 µM on human 5-HT6 receptor and on human α1D receptor were 97% and 66%, respectively.

For `O=C(c1ccc(F)cc1)C1CCN(CC[C@@H]2CCCN2C(=O)c2[nH]c3ccccc3c2F)CC1` [Example 165, (S)-(3-Fluoro-1H-indol-2-yl)(2-(2-(4-(4-fluorobenzoyl)piperidin-1-yl)ethyl)pyrrolidin-1-yl)methanone], at human D2L receptor, the inhibition at 0.01 µM amounted to 90%. In addition, on human 5-HT2A receptor (1 nM test drug), the inhibition at 0.001 µM turned out to be 74%. Also, the values for the inhibition at 0.1 µM at human 5-HT6 receptor and at human α1D receptor were 90% and 53%, respectively.

Consider `Cc1ccc2cc(C(=O)N3CCC[C@H]3CCN3CCC(N4CCc5cc(F)ccc54)CC3)[nH]c2c1` [Example 3], for which the inhibition at 0.01 µM on human D2L receptor is 80%. For the same compound, the inhibition at 0.001 µM on human 5-HT2A receptor (1 nM test drug) was 65%. The inhibition at 0.1 µM stood at 94% on human 5-HT6 receptor and 74% at human α1D receptor.

Consider `O=C(c1ccc(F)cc1)C1CCN(CC[C@@H]2CCCN2C(=O)c2cc(-c3ccccc3)n[nH]2)CC1` [Example 51], for which the inhibition at 0.01 µM on human D2L receptor came out at 81%. On human 5-HT2A receptor (1 nM test drug), the inhibition at 0.001 µM was 76%. Further, the figures for the inhibition at 0.1 µM on human 5-HT6 receptor and on human α1D receptor were 95% and 51%, respectively.

Consider `Cc1ccc2cc(C(=O)N3C[C@H](O)CC[C@H]3CCN3CCC(c4c[nH]c5ccccc45)CC3)[nH]c2c1` [Example 39], for which the inhibition at 0.01 µM at human D2L receptor turned out to be 77%. In addition, the inhibition at 0.001 µM at human 5-HT2A receptor (1 nM test drug) was determined as 70%. Besides, the inhibition at 0.1 µM at human 5-HT6 receptor was determined as 86%; at human α1D receptor it was 69%.

For `O=C(/C=C/c1ccc2c(c1)OCO2)N1CC[C@H]1CCN1CCC(c2noc3cc(F)ccc23)CC1` [Example 18], the inhibition at 0.01 µM on human D2L receptor worked out at 54%; on human 5-HT2A receptor, 100%. For the same compound, the inhibition at 0.1 µM on human 5-HT6 receptor was determined as 74%; at human α1D receptor it was 102%.

Turning to `Cc1ccc2cc(C(=O)N3CCOCCC3CCN3CCC(c4c[nH]c5ccccc45)CC3)[nH]c2c1` (stereo not shown) [Example 43], the inhibition at 0.01 µM at human D2L receptor is 74%. The inhibition at 0.001 µM at human 5-HT2A receptor (1 nM test drug) amounted to 77%. Also, the inhibition at 0.1 µM amounted to 83% on human 5-HT6 receptor and 82% on human α1D receptor.

As to `COc1ccc2cc(C(=O)N3CCOC[C@H]3CCN3CCC(c4noc5cc(F)ccc45)CC3)[nH]c2c1` [Example 15], the values for the inhibition at 0.01 µM at human D2L receptor and at human 5-HT2A receptor were 84% and 94%, respectively. Also, on human 5-HT2A receptor (1 nM test drug), the inhibition at 0.001 µM turned out to be 76%. The inhibition at 0.1 µM was determined as 79% at human 5-HT6 receptor and 74% at human α1D receptor.

For `Cc1ccc2cc(C(=O)N3CCC[C@H]3CCN3CCC(N4CCCc5ccccc54)CC3)[nH]c2c1` [Example 12], the inhibition at 0.01 µM on human D2L receptor was found to be 59%. The inhibition at 0.001 µM on human 5-HT2A receptor (1 nM test drug) was 28%. For the same compound, the inhibition at 0.1 µM at human 5-HT6 receptor was 84%; on human α1D receptor, 43%.

For the compound `Cc1ccc2cc(C(=O)N3CCC[C@H]3CCN3CCC(n4ccc5ccc(F)cc54)CC3)[nH]c2c1` [Example 10], the inhibition at 0.01 µM on human D2L receptor was 52%. In addition, at human 5-HT2A receptor (1 nM test drug), the inhibition at 0.001 µM turned out to be 37%. Further, the results for the inhibition at 0.1 µM on human 5-HT6 receptor and on human α1D receptor were 74% and 12%, respectively.

Regarding `O=C(/C=C/c1ccc2c(c1)OCO2)N1CCC[C@@H](CN2CCC(c3noc4cc(F)ccc34)CC2)C1` [Example 16], the inhibition at 0.01 µM at human D2L receptor is 97%; on human 5-HT2A receptor, 93%. In addition, the inhibition at 0.1 µM was determined as 87% at human 5-HT6 receptor and 91% at human α1D receptor.

`O=C(/C=C/c1ccc2c(c1)OCO2)N1CCCC[C@H]1CCN1CCN(c2cccc3ccccc23)CC1` [Example 9]: the inhibition at 0.01 µM is 32% on human D2L receptor and 94% on human 5-HT2A receptor. Moreover, the inhibition at 0.1 µM at human 5-HT6 receptor turned out to be 61%; on human α1D receptor, 5%.

For the compound `O=C(c1ccc(F)cc1)C1CCN(CC[C@@H]2CCCN2C(=O)c2cc3ccc(OC(F)(F)F)cc3[nH]2)CC1` [Example 160, (S)-(2-(2-(4-(4-Fluorobenzoyl)piperidin-1-yl)ethyl)pyrrolidin-1-yl)(6-(trifluoromethoxy)-1H-indol-2-yl)methanone], the inhibition at 0.01 µM on human D2L receptor was 90%. The inhibition at 0.001 µM at human 5-HT2A receptor (1 nM test drug) was 72%. Further, the inhibition at 0.1 µM at human 5-HT6 receptor amounted to 98%; on human α1D receptor, 53%.

Take `COc1ccc2[nH]c(C(=O)N3C[C@@](C)(O)C[C@H]3CCN3CCC(c4c[nH]c5ccccc45)CC3)cc2c1` [Example 38]: the inhibition at 0.01 µM worked out at 72% at human D2L receptor and 97% at human 5-HT2A receptor. Also, the inhibition at 0.1 µM at human 5-HT6 receptor was determined as 86%; on human α1D receptor it was 67%.

“(S)-(2-(2-(4-(4-Fluorobenzoyl)piperidin-1-yl)ethyl)pyrrolidin-1-yl)(1-methyl-1H-indol-5-yl)methanone [Example 169]”: the “BINDING INHIBITION RATE (%) D2L 10 nM” value at human D2L receptor came out at 81%. The “BINDING INHIBITION RATE (%) 5HT2A 1 nM” value at human 5-HT2A receptor (1 nM test drug) was found to be 47%. Moreover, the “BINDING INHIBITION RATE (%) 5HT6 100 nM” value at human 5-HT6 receptor came to 73%. The “BINDING INHIBITION RATE (%) α1D 100 nM” value on human α1D receptor was 49%.

In the case of `O=C(c1cc2cc(F)ccc2[nH]1)N1CCOC[C@H]1CCN1CCC(c2c[nH]c3ccccc23)CC1` [Example 7, (R)-(3-(2-(4-(1H-Indol-3-yl)piperidin-1-yl)ethyl)morpholino)(5-fluoro-1H-indol-2-yl)methanone], the inhibition at 0.01 µM on human D2L receptor amounted to 85%; on human 5-HT2A receptor, 100%. The inhibition at 0.1 µM turned out to be 97% on human 5-HT6 receptor and 86% at human α1D receptor.

On to `Cc1ccc2cc(C(=O)N3CCCC[C@H]3CCN3CCN(c4n[nH]c5ccccc45)CC3)[nH]c2c1` [Example 23], for which, on human D2L receptor, the inhibition at 0.01 µM came out at 62%. In addition, the inhibition at 0.001 µM on human 5-HT2A receptor (1 nM test drug) worked out at 34%. Besides, the figures for the inhibition at 0.1 µM on human 5-HT6 receptor and on human α1D receptor were 75% and 34%, respectively.

Take `Cc1ccc2cc(C(=O)N3CCC[C@H]3CCN3CCN(c4noc5cc(F)ccc45)CC3)[nH]c2c1` [Example 21]: the inhibition at 0.01 µM at human D2L receptor stood at 73%. In addition, the inhibition at 0.001 µM at human 5-HT2A receptor (1 nM test drug) amounted to 41%. Also, the inhibition at 0.1 µM was 94% at human 5-HT6 receptor and 55% on human α1D receptor.

In the case of `O=C(c1ccc(F)cc1)C1CCN(CC[C@@H]2CCCN2C(=O)c2[nH]c3cc(F)ccc3c2F)CC1` [Example 163, (S)-(3,6-Difluoro-1H-indol-2-yl)(2-(2-(4-(4-fluorobenzoyl)piperidin-1-yl)ethyl)pyrrolidin-1-yl)methanone], the inhibition at 0.01 µM on human D2L receptor worked out at 88%. Moreover, the inhibition at 0.001 µM on human 5-HT2A receptor (1 nM test drug) stood at 75%. Besides, the inhibition at 0.1 µM on human 5-HT6 receptor came out at 95%; on human α1D receptor, 48%.
